Assay results reported in publication PMC10714133 (RSC Advances, 2023).

Legend:
[1] = test system: P. falciparum 3D7; experiment: Plasmodium lactate dehydrogenase; assay type: cell-based, Plasmodium falciparum; settings: for Antimalarial activity class against 3D7 strain: class by EC50 threshold; for EC50 against 3D7, fold higher than CQ: relative to chloroquine diphosphate; for Selectivity index (SI) P. falciparum: IC50 WRL-68 / EC50 Pf3D7
[2] = test system: P. knowlesi A1H1; experiment: Plasmodium lactate dehydrogenase; assay type: cell-based, Plasmodium knowlesi; settings: for Selectivity index (SI) P. knowlesi: IC50 WRL-68 / EC50 PkA1H1; for Antimalarial activity class against A1H1 strain: class by EC50 threshold; for EC50 against A1H1 strain, fold higher than CQ: relative to chloroquine diphosphate
[3] = test system: WRL-68 cell (human normal liver cell line); experiment: MTT cytotoxicity assay; assay type: cell-based; settings: read-out: WRL-68 cell (mammalian cell) IC50 (μM) ± SD, 72 hours incubation

| SMILES | Selectivity index (SI) P. knowlesi [2] | Selectivity index (SI) P. falciparum [1] | also measured |
| --- | --- | --- | --- |
| O=C(/C=C/c1ccc(CN2CCCCC2)c(O)c1)c1ccc(F)cc1 [Compound 2a, (E)-1-(4-Fluorophenyl)-3-(3-hydroxy-4-(piperidin-1-ylmethyl)phenyl)prop-2-en-1-one] | 10.50 | – | Antimalarial activity class against 3D7 strain [1]: potential (EC50 < 1 μM as potential activity); EC50 against 3D7, fold higher than CQ [1]: about 48 fold; Antimalarial activity class against A1H1 strain [2]: active; EC50 against A1H1 strain, fold higher than CQ [2]: about 66 fold |
| O=C(/C=C/c1cccc(O)c1)c1ccc(Cl)cc1 [Compound 1d, (E)-1-(4-Chlorophenyl)-3-(3-hydroxyphenyl)prop-2-en-1-one] | 0.31 | – | – |
| CCN(CC)CCCC(C)Nc1ccnc2cc(Cl)ccc12 (stereo not drawn) [CQ, chloroquine diphosphate, reference compound] | >2500 | >2500 | – |
| O=C(/C=C/c1ccc(O)cc1)c1ccc(F)cc1 [Compound 1b, (E)-1-(4-Fluorophenyl)-3-(4-hydroxyphenyl)prop-2-en-1-one] | 0.14 | – | – |
| O=C(/C=C/c1ccc(O)cc1)c1ccc(Cl)cc1 [Compound 1c, (E)-1-(4-Chlorophenyl)-3-(4-hydroxyphenyl)prop-2-en-1-one] | 0.52 | – | – |
| CC1CCN(Cc2ccc(/C=C/C(=O)c3ccc(Cl)cc3)cc2O)CC1 [Compound 2g, (E)-1-(4-Chlorophenyl)-3-(3-hydroxy-4-((4-methylpiperidin-1-yl)methyl)phenyl)prop-2-en-1-one] | 0.47 | 0.54 | – |
| CC1CCN(Cc2cc(/C=C/C(=O)c3ccc(Cl)cc3)ccc2O)CC1 [Compound 2f, (E)-1-(4-Chlorophenyl)-3-(4-hydroxy-3-((4-methylpiperidin-1-yl)methyl)phenyl)prop-2-en-1-one] | 4.10 | 4.73 | Antimalarial activity class against 3D7 strain [1]: good; Antimalarial activity class against A1H1 strain [2]: active |
| O=C(/C=C/c1ccc(O)c(CN2CCCCC2)c1)c1ccc(F)cc1 [Compound 2c, (E)-1-(4-Fluorophenyl)-3-(4-hydroxy-3-(piperidin-1-ylmethyl)phenyl)prop-2-en-1-one] | 1.09 | – | – |
| O=C(/C=C/c1ccc(O)c(CN2CCOCC2)c1)c1ccc(F)cc1 [Compound 2b, (E)-1-(4-Fluorophenyl)-3-(4-hydroxy-3-(morpholinomethyl)phenyl)prop-2-en-1-one] | 0.65 | – | – |
| O=C(/C=C/c1ccc(CN2CCCCC2)c(O)c1)c1ccc(Br)cc1 [Compound 2h, (E)-1-(4-Bromophenyl)-3-(3-hydroxy-4-(piperidin-1-ylmethyl)phenyl)prop-2-en-1-one] | – | – | Antimalarial activity class against 3D7 strain [1]: potential (EC50 < 1 μM as potential activity); EC50 against 3D7, fold higher than CQ [1]: 83 fold; IC50 [3]: > 99 µM; EC50 against A1H1 strain, fold higher than CQ [2]: about 3 fold |
| O=C(/C=C/c1cccc(O)c1)c1ccc(F)cc1 [Compound 1a, (E)-1-(4-Fluorophenyl)-3-(3-hydroxyphenyl)prop-2-en-1-one] | 1.34 | 1.50 | – |
